Measured values from ChEMBL document CHEMBL3351986, “Probing linker design in citric acid-ciprofloxacin conjugates” (2014).
In brackets after ≈: the same amount, converted by molar mass. Activity calls are given as the source filed them. The calls are words filed in the database; no cut-off is given here.

Columns and labels:
Staphylococcus aureus [1] = assay: Antimicrobial activity against Staphylococcus aureus NCTC 13142 after 18 hrs by micro dilution method; type: functional; details: NCTC 13142, 18 h
[2] = Inhibition of DNA gyrase (unknown origin) assessed as reduction in supercoiled form of DNA at 5 to 20 uM using ethidium bromide staining by gel electrophoresis
Burkholderia cepacia [3] = assay: Antimicrobial activity against Burkholderia cepacia BIG 119 after 18 hrs by micro dilution method; type: functional; details: BIG 119, 18 h
Staphylococcus aureus [4] = assay: Antimicrobial activity against Staphylococcus aureus (Oxford) NCTC 6571 after 18 hrs by micro dilution method; type: functional; details: (Oxford) NCTC 6571, 18 h
Staphylococcus aureus [5] = assay: Antimicrobial activity against Staphylococcus aureus NCTC 13143 after 18 hrs by micro dilution method; type: functional; details: NCTC 13143, 18 h
[6] = test system: Staphylococcus epidermidis; assay: Antimicrobial activity against Staphylococcus epidermidis NCTC 2749 after 18 hrs by micro dilution method; type: functional; details: NCTC 2749, 18 h
[7] = test system: Stenotrophomonas maltophilia; assay: Antimicrobial activity against Stenotrophomonas maltophilia N1119 after 18 hrs by micro dilution method; type: functional; details: N1119, 18 h
Burkholderia cepacia [8] = assay: Antimicrobial activity against Burkholderia cepacia BIG 120 after 18 hrs by micro dilution method; type: functional; details: BIG 120, 18 h
Burkholderia cepacia [9] = assay: Antimicrobial activity against Burkholderia cepacia BIG 117 after 18 hrs by micro dilution method; type: functional; details: BIG 117, 18 h
Staphylococcus aureus [10] = assay: Antimicrobial activity against Staphylococcus aureus BIG 52 after 18 hrs by micro dilution method; type: functional; details: BIG 52, 18 h
Burkholderia cepacia [11] = assay: Antimicrobial activity against Burkholderia cepacia BIG 118 after 18 hrs by micro dilution method; type: functional; details: BIG 118, 18 h
[12] = test system: Stenotrophomonas maltophilia; assay: Antimicrobial activity against Stenotrophomonas maltophilia N1124 after 18 hrs by micro dilution method; type: functional; details: N1124, 18 h
Escherichia coli [13] = assay: Antimicrobial activity against Escherichia coli BIG 0046 after 18 hrs by micro dilution method; type: functional; details: BIG 0046, 18 h
Burkholderia cepacia [14] = assay: Antimicrobial activity against Burkholderia cepacia BIG 9 NCTC 10744 after 18 hrs by micro dilution method; type: functional; details: BIG 9 NCTC 10744, 18 h
[15] = test system: Staphylococcus haemolyticus; assay: Antimicrobial activity against Staphylococcus haemolyticus NCTC 11042 after 18 hrs by micro dilution method; type: functional; details: NCTC 11042, 18 h
Serratia marcescens [16] = assay: Antimicrobial activity against Serratia marcescens BIG 11 NCTC 1377 after 18 hrs by micro dilution method; type: functional; details: BIG 11 NCTC 1377, 18 h
Burkholderia cepacia [17] = assay: Antimicrobial activity against Burkholderia cepacia BIG 121 after 18 hrs by micro dilution method; type: functional; details: BIG 121, 18 h
[18] = test system: Staphylococcus epidermidis; assay: Antimicrobial activity against Staphylococcus epidermidis NCTC 11047 after 18 hrs by micro dilution method; type: functional; details: NCTC 11047, 18 h
Staphylococcus aureus [19] = assay: Antimicrobial activity against Staphylococcus aureus HG-1 after 18 hrs by micro dilution method; type: functional; details: HG-1, 18 h
[20] = test system: Stenotrophomonas maltophilia; assay: Antimicrobial activity against Stenotrophomonas maltophilia N1127 after 18 hrs by micro dilution method; type: functional; details: N1127, 18 h
Pseudomonas aeruginosa [21] = assay: Antimicrobial activity against Pseudomonas aeruginosa BIG 37 clinical isolate after 18 hrs by micro dilution method; type: functional; details: BIG 37, 18 h
Pseudomonas aeruginosa [22] = assay: Ratio of compound MIC to ciprofloxacin MIC for Pseudomonas aeruginosa environmental isolate after 18 hrs by micro dilution method; type: functional
Pseudomonas aeruginosa [23] = assay: Ratio of compound MIC to ciprofloxacin MIC for Pseudomonas aeruginosa NCTC 10662 after 18 hrs by micro dilution method; type: functional
Pseudomonas aeruginosa [24] = assay: Antimicrobial activity against Pseudomonas aeruginosa environmental isolate BIG 39 after 18 hrs by micro dilution method; type: functional; details: BIG 39, 18 h
Escherichia coli [25] = assay: Antimicrobial activity against Escherichia coli NCTC 10418 after 18 hrs by micro dilution method; type: functional; details: NCTC 10418, 18 h
[26] = test system: Staphylococcus epidermidis; assay: Ratio of compound MIC to ciprofloxacin MIC for Staphylococcus epidermidis NCTC 2749 after 18 hrs by micro dilution method; type: functional
Pseudomonas aeruginosa [27] = assay: Ratio of compound MIC to ciprofloxacin MIC for Pseudomonas aeruginosa BIG 63 after 18 hrs by micro dilution method; type: functional
Serratia marcescens [28] = assay: Ratio of compound MIC to ciprofloxacin MIC for Serratia marcescens BIG 11 NCTC 1377 after 18 hrs by micro dilution method; type: functional
Burkholderia cepacia [29] = assay: Ratio of compound MIC to ciprofloxacin MIC for Burkholderia cepacia BIG 9 NCTC 10744 after 18 hrs by micro dilution method; type: functional
Escherichia coli [30] = assay: Ratio of compound MIC to ciprofloxacin MIC for Escherichia coli NCTC 10418 after 18 hrs by micro dilution method; type: functional
Pseudomonas aeruginosa [31] = assay: Antimicrobial activity against Pseudomonas aeruginosa NCTC 10662 after 18 hrs by micro dilution method; type: functional; details: NCTC 10662, 18 h
[32] = Inhibition of DNA gyrase (unknown origin) assessed as reduction in supercoiled form of DNA at 20 uM using ethidium bromide staining by gel electrophoresis
Pseudomonas aeruginosa [33] = assay: Antimicrobial activity against Pseudomonas aeruginosa BIG 63 after 18 hrs by micro dilution method; type: functional; details: BIG 63, 18 h

| Structure (SMILES) | MIC (Staphylococcus aureus [1]) [µg/mL] | MIC (Burkholderia cepacia [3]) [µg/mL] | MIC (Staphylococcus aureus [4]) [µg/mL] | MIC (Staphylococcus aureus [5]) [µg/mL] | MIC [6] [µg/mL] | MIC [7] [µg/mL] | MIC (Burkholderia cepacia [8]) [µg/mL] | MIC (Burkholderia cepacia [9]) [µg/mL] | MIC (Staphylococcus aureus [10]) [µg/mL] | MIC (Burkholderia cepacia [11]) [µg/mL] | MIC [12] [µg/mL] | MIC (Escherichia coli [13]) [µg/mL] | MIC (Burkholderia cepacia [14]) [µg/mL] | MIC [15] [µg/mL] | MIC (Serratia marcescens [16]) [µg/mL] | MIC (Burkholderia cepacia [17]) [µg/mL] | MIC [18] [µg/mL] | MIC (Staphylococcus aureus [19]) [µg/mL] | MIC [20] [µg/mL] | also measured |
| --- | --- | --- | --- | --- | --- | --- | --- | --- | --- | --- | --- | --- | --- | --- | --- | --- | --- | --- | --- | --- |
| O=C(O)c1cn(C2CC2)c2cc(N3CCNCC3)c(F)cc2c1=O [CIPROFLOXACIN] | 0.5 (≈ 1.51 µM) | 4 (≈ 12.1 µM) | 0.25 (≈ 0.754 µM) | > 36 | 0.25 (≈ 0.754 µM) | 1 (≈ 3.02 µM) | 2 (≈ 6.04 µM) | 1 (≈ 3.02 µM) | 0.5 (≈ 1.51 µM) | 0.25 (≈ 0.754 µM) | 4 (≈ 12.1 µM) | > 36 | 0.5 (≈ 1.51 µM) | 0.125 (≈ 0.377 µM) | 0.06 (≈ 0.181 µM) | 8 (≈ 24.1 µM) | 0.125 (≈ 0.377 µM) | > 36 | 2 (≈ 6.04 µM) | inhibition [2]: Active |
| O=C(O)CC(O)(CC(=O)NCCCCC(=O)N1CCN(c2cc3c(cc2F)c(=O)c(C(=O)O)cn3C2CC2)CC1)C(=O)O (racemic) | > 36 | > 36 | > 36 | > 36 | 32 (≈ 52.9 µM) | > 36 | > 36 | > 36 | > 36 | > 36 | > 36 | > 36 | 32 (≈ 52.9 µM) | > 36 | 4 (≈ 6.62 µM) | > 36 | > 36 | > 36 | > 36 | MIC (Pseudomonas aeruginosa [21]): > 36 µg/mL; Ratio (Pseudomonas aeruginosa [22]): 35; Ratio (Pseudomonas aeruginosa [23]): 35; MIC (Pseudomonas aeruginosa [24]): 16 µg/mL (≈ 26.5 µM); MIC (Escherichia coli [25]): 1 µg/mL (≈ 1.65 µM); Ratio [26]: 70; Ratio (Pseudomonas aeruginosa [27]): 35; Ratio (Serratia marcescens [28]): 36.5; Ratio (Burkholderia cepacia [29]): 35; Ratio (Escherichia coli [30]): 8.8; MIC (Pseudomonas aeruginosa [31]): 16 µg/mL (≈ 26.5 µM); inhibition [32]: Active; MIC (Pseudomonas aeruginosa [33]): 16 µg/mL (≈ 26.5 µM) |
